Measurements as given in ChEMBL document CHEMBL1697781, “Assessment of the health effects of chemicals in humans: II. Construction of an adverse effects database for QSAR modeling” (Curr Drug Discov Technol, 2004).

How the values were obtained:
Conditions in all cases: human; call rule not given here
[1] = test system: Hepatotoxicity; assay: FDA HLAED, alkaline phosphatase increase
[2] = test system: Hepatotoxicity; assay: FDA HLAED, gamma-glutamyl transferase (GGT) increase
[3] = test system: Hepatotoxicity; assay: FDA HLAED, lactate dehydrogenase (LDH) increase
[4] = test system: Hepatotoxicity; assay: FDA HLAED, serum glutamic pyruvic transaminase (SGPT) increase
[5] = test system: Hepatotoxicity; assay: FDA HLAED, liver enzyme composite activity
[6] = test system: Hepatotoxicity; assay: FDA HLAED, serum glutamic oxaloacetic transaminase (SGOT) increase
Wherever GGT Increase - Index Value is given: reference of the scale not given here.
Wherever LDH Increase - Index Value is given: reference of the scale not given here.

SMILES: CO[C@@]1(NC(=O)Cc2cccs2)C(=O)N2C(C(=O)O)=C(COC(N)=O)CS[C@@H]21 [CEFOXITIN]
- Alkaline Phosphatase Increase - Activity Score [1]: Inactive
- Alkaline Phosphatase Increase - Index Value [1]: 0
- Alkaline Phosphatase Increase - Number of Reports [1]: < 4
- GGT Increase - Activity Score [2]: Inactive
- GGT Increase - Index Value [2]: 0
- GGT Increase - Number of Reports [2]: < 4
- LDH Increase - Activity Score [3]: Inactive
- LDH Increase - Index Value [3]: 0
- LDH Increase - Number of Reports [3]: < 4
- SGPT Increase - Activity Score [4]: Inactive
- SGPT Increase - Index Value [4]: 0
- SGPT Increase - Number of Reports [4]: < 4
- Composite Activity - Active [5]: 0
- Composite Activity - Marginal [5]: 0
- Composite Activity - Score [5]: Inactive
- SGOT Increase - Activity Score [6]: Inactive
- SGOT Increase - Index Value [6]: 0
- SGOT Increase - Number of Reports [6]: < 4

SMILES: COCC1=C(C(=O)OC(C)OC(=O)OC(C)C)N2C(=O)[C@@H](NC(=O)/C(=N\OC)c3csc(N)n3)[C@H]2SC1 (stereo partly specified) [CEFPODOXIME PROXETIL]
- Alkaline Phosphatase Increase - Activity Score [1]: Inactive
- Alkaline Phosphatase Increase - Index Value [1]: 1
- Alkaline Phosphatase Increase - Number of Reports [1]: >= 4
- GGT Increase - Activity Score [2]: Inactive
- GGT Increase - Index Value [2]: 0.5
- GGT Increase - Number of Reports [2]: < 4
- LDH Increase - Activity Score [3]: Inactive
- LDH Increase - Index Value [3]: 0.2
- LDH Increase - Number of Reports [3]: < 4
- SGPT Increase - Activity Score [4]: Inactive
- SGPT Increase - Index Value [4]: 0.8
- SGPT Increase - Number of Reports [4]: >= 4
- Composite Activity - Active [5]: 0
- Composite Activity - Marginal [5]: 0
- Composite Activity - Score [5]: Inactive
- SGOT Increase - Activity Score [6]: Inactive
- SGOT Increase - Index Value [6]: 1
- SGOT Increase - Number of Reports [6]: >= 4

SMILES: COCC1=C(C(=O)O)N2C(=O)[C@@H](NC(=O)/C(=N\OC)c3csc(N)n3)[C@H]2SC1 [CEFPODOXIME]
- Alkaline Phosphatase Increase - Activity Score [1]: Inactive
- Alkaline Phosphatase Increase - Index Value [1]: 1
- Alkaline Phosphatase Increase - Number of Reports [1]: >= 4
- GGT Increase - Activity Score [2]: Inactive
- GGT Increase - Index Value [2]: 0.5
- GGT Increase - Number of Reports [2]: < 4
- LDH Increase - Activity Score [3]: Inactive
- LDH Increase - Index Value [3]: 0.2
- LDH Increase - Number of Reports [3]: < 4
- SGPT Increase - Activity Score [4]: Inactive
- SGPT Increase - Index Value [4]: 0.8
- SGPT Increase - Number of Reports [4]: >= 4
- Composite Activity - Active [5]: 0
- Composite Activity - Marginal [5]: 0
- Composite Activity - Score [5]: Inactive
- SGOT Increase - Activity Score [6]: Inactive
- SGOT Increase - Index Value [6]: 1
- SGOT Increase - Number of Reports [6]: >= 4

SMILES: CC=CC1=C(C(=O)O)N2C(=O)[C@@H](NC(=O)[C@H](N)c3ccc(O)cc3)[C@H]2SC1 [CEFPROZIL]
- Alkaline Phosphatase Increase - Activity Score [1]: Inactive
- Alkaline Phosphatase Increase - Index Value [1]: 0.2
- Alkaline Phosphatase Increase - Number of Reports [1]: >= 4
- GGT Increase - Activity Score [2]: Inactive
- GGT Increase - Index Value [2]: 0.1
- GGT Increase - Number of Reports [2]: < 4
- LDH Increase - Activity Score [3]: Inactive
- LDH Increase - Index Value [3]: 0.2
- LDH Increase - Number of Reports [3]: >= 4
- SGPT Increase - Activity Score [4]: Inactive
- SGPT Increase - Index Value [4]: 0.2
- SGPT Increase - Number of Reports [4]: >= 4
- Composite Activity - Active [5]: 0
- Composite Activity - Marginal [5]: 0
- Composite Activity - Score [5]: Inactive
- SGOT Increase - Activity Score [6]: Inactive
- SGOT Increase - Index Value [6]: 0.4
- SGOT Increase - Number of Reports [6]: >= 4

SMILES: CC(C)(O/N=C(\C(=O)N[C@@H]1C(=O)N2C(C(=O)[O-])=C(C[n+]3ccccc3)CS[C@H]12)c1csc(N)n1)C(=O)O [CEFTAZIDIME]
- Alkaline Phosphatase Increase - Activity Score [1]: Inactive
- Alkaline Phosphatase Increase - Index Value [1]: 0
- Alkaline Phosphatase Increase - Number of Reports [1]: < 4
- GGT Increase - Activity Score [2]: Inactive
- GGT Increase - Index Value [2]: 0
- GGT Increase - Number of Reports [2]: < 4
- LDH Increase - Activity Score [3]: Inactive
- LDH Increase - Index Value [3]: 0
- LDH Increase - Number of Reports [3]: < 4
- SGPT Increase - Activity Score [4]: Inactive
- SGPT Increase - Index Value [4]: 0
- SGPT Increase - Number of Reports [4]: < 4
- Composite Activity - Active [5]: 0
- Composite Activity - Marginal [5]: 0
- Composite Activity - Score [5]: Inactive
- SGOT Increase - Activity Score [6]: Inactive
- SGOT Increase - Index Value [6]: 0
- SGOT Increase - Number of Reports [6]: < 4

SMILES: Nc1nc(/C(=C/CC(=O)O)C(=O)N[C@@H]2C(=O)N3C(C(=O)O)=CCS[C@H]23)cs1 [CEFTIBUTEN]
- Alkaline Phosphatase Increase - Activity Score [1]: Inactive
- Alkaline Phosphatase Increase - Index Value [1]: 0
- Alkaline Phosphatase Increase - Number of Reports [1]: < 4
- GGT Increase - Activity Score [2]: Inactive
- GGT Increase - Index Value [2]: 0
- GGT Increase - Number of Reports [2]: < 4
- LDH Increase - Activity Score [3]: Inactive
- LDH Increase - Index Value [3]: 0
- LDH Increase - Number of Reports [3]: < 4
- SGPT Increase - Activity Score [4]: Inactive
- SGPT Increase - Index Value [4]: 0
- SGPT Increase - Number of Reports [4]: < 4
- Composite Activity - Active [5]: 0
- Composite Activity - Marginal [5]: 0
- Composite Activity - Score [5]: Inactive
- SGOT Increase - Activity Score [6]: Inactive
- SGOT Increase - Index Value [6]: 0
- SGOT Increase - Number of Reports [6]: < 4

SMILES: CO/N=C(\C(=O)N[C@@H]1C(=O)N2C(C(=O)O)=CCS[C@H]12)c1csc(N)n1 [CEFTIZOXIME]
- Alkaline Phosphatase Increase - Activity Score [1]: Inactive
- Alkaline Phosphatase Increase - Index Value [1]: 2.9
- Alkaline Phosphatase Increase - Number of Reports [1]: >= 4
- GGT Increase - Activity Score [2]: Inactive
- GGT Increase - Index Value [2]: 0
- GGT Increase - Number of Reports [2]: < 4
- LDH Increase - Activity Score [3]: Inactive
- LDH Increase - Index Value [3]: 0.3
- LDH Increase - Number of Reports [3]: < 4
- SGPT Increase - Activity Score [4]: Active
- SGPT Increase - Index Value [4]: 4
- SGPT Increase - Number of Reports [4]: >= 4
- Composite Activity - Active [5]: 2
- Composite Activity - Marginal [5]: 0
- Composite Activity - Score [5]: Active
- SGOT Increase - Activity Score [6]: Active
- SGOT Increase - Index Value [6]: 7.8
- SGOT Increase - Number of Reports [6]: >= 4

SMILES: CO/N=C(\C(=O)N[C@@H]1C(=O)N2C(C(=O)O)=C(CSc3nc(=O)c(=O)[nH]n3C)CS[C@H]12)c1csc(N)n1 [CEFTRIAXONE]
- Alkaline Phosphatase Increase - Activity Score [1]: Marginally Active
- Alkaline Phosphatase Increase - Index Value [1]: 3.4
- Alkaline Phosphatase Increase - Number of Reports [1]: >= 4
- GGT Increase - Activity Score [2]: Inactive
- GGT Increase - Index Value [2]: 2.6
- GGT Increase - Number of Reports [2]: >= 4
- LDH Increase - Activity Score [3]: Inactive
- LDH Increase - Index Value [3]: 1.9
- LDH Increase - Number of Reports [3]: >= 4
- SGPT Increase - Activity Score [4]: Marginally Active
- SGPT Increase - Index Value [4]: 3.8
- SGPT Increase - Number of Reports [4]: >= 4
- Composite Activity - Active [5]: 0
- Composite Activity - Marginal [5]: 3
- Composite Activity - Score [5]: Inactive
- SGOT Increase - Activity Score [6]: Marginally Active
- SGOT Increase - Index Value [6]: 3.8
- SGOT Increase - Number of Reports [6]: >= 4

SMILES: CO/N=C(\C(=O)N[C@@H]1C(=O)N2C(C(=O)OC(C)OC(C)=O)=C(COC(N)=O)CS[C@H]12)c1ccco1 (stereo partly specified) [CEFUROXIME AXETIL]
- Alkaline Phosphatase Increase - Activity Score [1]: Inactive
- Alkaline Phosphatase Increase - Index Value [1]: 0
- Alkaline Phosphatase Increase - Number of Reports [1]: < 4
- GGT Increase - Activity Score [2]: Inactive
- GGT Increase - Index Value [2]: 0
- GGT Increase - Number of Reports [2]: < 4
- LDH Increase - Activity Score [3]: Inactive
- LDH Increase - Index Value [3]: 0
- LDH Increase - Number of Reports [3]: < 4
- SGPT Increase - Activity Score [4]: Inactive
- SGPT Increase - Index Value [4]: 0
- SGPT Increase - Number of Reports [4]: < 4
- Composite Activity - Active [5]: 0
- Composite Activity - Marginal [5]: 0
- Composite Activity - Score [5]: Inactive
- SGOT Increase - Activity Score [6]: Inactive
- SGOT Increase - Index Value [6]: 0
- SGOT Increase - Number of Reports [6]: < 4

SMILES: CO/N=C(/C(=O)N[C@@H]1C(=O)N2C(C(=O)OC(C)OC(=O)C(C)(C)OC)=C(COC(N)=O)CS[C@H]12)c1ccco1 (stereo partly specified) [CEFUROXIME PIVOXETIL]
- Alkaline Phosphatase Increase - Activity Score [1]: Inactive
- Alkaline Phosphatase Increase - Index Value [1]: 0
- Alkaline Phosphatase Increase - Number of Reports [1]: < 4
- GGT Increase - Activity Score [2]: Inactive
- GGT Increase - Index Value [2]: 0
- GGT Increase - Number of Reports [2]: < 4
- LDH Increase - Activity Score [3]: Inactive
- LDH Increase - Index Value [3]: 0
- LDH Increase - Number of Reports [3]: < 4
- SGPT Increase - Activity Score [4]: Inactive
- SGPT Increase - Index Value [4]: 0
- SGPT Increase - Number of Reports [4]: < 4
- Composite Activity - Active [5]: 0
- Composite Activity - Marginal [5]: 0
- Composite Activity - Score [5]: Inactive
- SGOT Increase - Activity Score [6]: Inactive
- SGOT Increase - Index Value [6]: 0
- SGOT Increase - Number of Reports [6]: < 4

SMILES: CO/N=C(\C(=O)N[C@@H]1C(=O)N2C(C(=O)O)=C(COC(N)=O)CS[C@H]12)c1ccco1 [CEFUROXIME]
- Alkaline Phosphatase Increase - Activity Score [1]: Inactive
- Alkaline Phosphatase Increase - Index Value [1]: 0
- Alkaline Phosphatase Increase - Number of Reports [1]: < 4
- GGT Increase - Activity Score [2]: Inactive
- GGT Increase - Index Value [2]: 0
- GGT Increase - Number of Reports [2]: < 4
- LDH Increase - Activity Score [3]: Inactive
- LDH Increase - Index Value [3]: 0
- LDH Increase - Number of Reports [3]: < 4
- SGPT Increase - Activity Score [4]: Inactive
- SGPT Increase - Index Value [4]: 0
- SGPT Increase - Number of Reports [4]: < 4
- Composite Activity - Active [5]: 0
- Composite Activity - Marginal [5]: 0
- Composite Activity - Score [5]: Inactive
- SGOT Increase - Activity Score [6]: Inactive
- SGOT Increase - Index Value [6]: 0.2
- SGOT Increase - Number of Reports [6]: < 4

SMILES: CC(=O)OCC1=C(C(=O)O)N2C(=O)[C@@H](NC(=O)CSc3ccncc3)[C@H]2SC1 [CEPHAPIRIN]
- Alkaline Phosphatase Increase - Activity Score [1]: Inactive
- Alkaline Phosphatase Increase - Index Value [1]: 0
- Alkaline Phosphatase Increase - Number of Reports [1]: < 4
- GGT Increase - Activity Score [2]: Inactive
- GGT Increase - Index Value [2]: 0
- GGT Increase - Number of Reports [2]: < 4
- LDH Increase - Activity Score [3]: Inactive
- LDH Increase - Index Value [3]: 0
- LDH Increase - Number of Reports [3]: < 4
- SGPT Increase - Activity Score [4]: Inactive
- SGPT Increase - Index Value [4]: 0
- SGPT Increase - Number of Reports [4]: < 4
- Composite Activity - Active [5]: 0
- Composite Activity - Marginal [5]: 0
- Composite Activity - Score [5]: Inactive
- SGOT Increase - Activity Score [6]: Inactive
- SGOT Increase - Index Value [6]: 0
- SGOT Increase - Number of Reports [6]: < 4
